Reference: publication PMC9037210, “Novel 3-(6-methylpyridin-2-yl)coumarin-based chalcones as selective inhibitors of cancer-related carbonic anhydrases IX and XII endowed with anti-proliferative activity” (Journal of Enzyme Inhibition and Medicinal Chemistry, 2022)
pKi: −log10 of the molar value.

Key:
HL-60(TB) = assay: NCI single (10 µM) dose SRB screening, HL-60(TB); assay type: cell-based, human; conditions: 10 µM single dose, Leukaemia
Protocol: (§1) Following NCI protocol, sixteen MPCs were screened for their potential in vitro anticancer effects against human 59 cancer cell panels including prostate, leukaemia melanoma, colon, breast, CNS, renal, NSCLC, and ovarian cancers by National Cancer Institute (USA)[30].
(§2) The antiproliferative activities of MPC 3 and MPCs 5a–o were first evaluated in a 10 µM dose assay, with SRB assay used to determine cell survival and proliferation. […] The results of the cell growth inhibitory activities for MPCs 5g and 5l towards the different treated tumour cell lines were presented as GI% and presented in Table 3.
(§3) The anticancer test was conducted using the methods of the Drug Evaluation Branch, National Cancer Institute, Bethesda, MD, using 59 human tumour cell lines derived from nine human tissues. The GI50, TGI, and LC50 dose-response parameters were calculated for each medication.

HOP-62 = assay: NCI single (10 µM) dose SRB screening, HOP-62; assay type: cell-based, human; conditions: 10 µM single dose, HOP-62, NSC lung cancer
Protocol: as §1, §2, §3

HOP-92 = assay: NCI single (10 µM) dose SRB screening, HOP-92; assay type: cell-based, human; conditions: 10 µM single dose, HOP-92, NSC lung cancer
Protocol: as §1, §2, §3

MDA-MB-468 = assay: NCI single (10 µM) dose SRB screening, MDA-MB-468; assay type: cell-based, human; conditions: 10 µM single dose, MDA-MB-468, Breast cancer
Protocol: as §1, §2, §3

NCI-H226 = assay: NCI single (10 µM) dose SRB screening, NCI-H226; assay type: cell-based, human; conditions: 10 µM single dose, NCI-H226, NSC lung cancer
Protocol: as §1, §2, §3

ACHN = assay: NCI single (10 µM) dose SRB screening, ACHN; assay type: cell-based, human; conditions: 10 µM single dose, Renal cancer
Protocol: as §1, §2, §3

HS 578 T = assay: NCI single (10 µM) dose SRB screening, HS 578 T; assay type: cell-based, human; conditions: 10 µM single dose, Breast cancer
Protocol: as §1, §2, §3

IGROV1 = assay: NCI single (10 µM) dose SRB screening, IGROV1; assay type: cell-based, human; conditions: 10 µM single dose, IGROV1, Ovarian cancer
Protocol: as §1, §2, §3

NCI-H460 = assay: NCI single (10 µM) dose SRB screening, NCI-H460; assay type: cell-based, human; conditions: 10 µM single dose, NCI-H460, NSC lung cancer
Protocol: as §1, §2, §3

CAKI-1 = assay: NCI single (10 µM) dose SRB screening, CAKI-1; assay type: cell-based, human; conditions: 10 µM single dose, CAKI-1, Renal cancer
Protocol: as §1, §2, §3

U251 = assay: NCI single (10 µM) dose SRB screening, U251; assay type: cell-based, human; conditions: 10 µM single dose, U251, CNS cancer
Protocol: as §1, §2, §3

OVCAR-5 = assay: NCI single (10 µM) dose SRB screening, OVCAR-5; assay type: cell-based, human; conditions: 10 µM single dose, OVCAR-5, Ovarian cancer
Protocol: as §1, §2, §3

SF-539 = assay: NCI single (10 µM) dose SRB screening, SF-539; assay type: cell-based, human; conditions: 10 µM single dose, SF-539, CNS cancer
Protocol: as §1, §2, §3

HT29 = assay: NCI single (10 µM) dose SRB screening, HT29; assay type: cell-based, human; conditions: 10 µM single dose, HT29, Colon cancer
Protocol: as §1, §2, §3

PC-3 = assay: NCI single (10 µM) dose SRB screening, PC-3; assay type: cell-based, human; conditions: 10 µM single dose, PC-3, Prostate cancer
Protocol: as §1, §2, §3

OVCAR-8 = assay: NCI single (10 µM) dose SRB screening, OVCAR-8; assay type: cell-based, human; conditions: 10 µM single dose, OVCAR-8, Ovarian cancer
Protocol: as §1, §2, §3

CCRF-CEM = assay: NCI single (10 µM) dose SRB screening, CCRF-CEM; assay type: cell-based, human; conditions: 10 µM single dose, Leukaemia
Protocol: as §1, §2, §3

HCT-116 = assay: NCI single (10 µM) dose SRB screening, HCT-116; assay type: cell-based, human; conditions: 10 µM single dose, HCT-116, Colon cancer
Protocol: as §1, §2, §3

OVCAR-3 = assay: NCI single (10 µM) dose SRB screening, OVCAR-3; assay type: cell-based, human; conditions: 10 µM single dose, OVCAR-3, Ovarian cancer
Protocol: as §1, §2, §3

K-562 = assay: NCI single (10 µM) dose SRB screening, K-562; assay type: cell-based, human; conditions: 10 µM single dose, K-562, Leukaemia
Protocol: as §1, §2, §3

RXF 393 = assay: NCI single (10 µM) dose SRB screening, RXF 393; assay type: cell-based, human; conditions: 10 µM single dose, RXF 393, Renal cancer
Protocol: as §1, §2, §3

hCA IX = target: T1, hCA IX (Homo sapiens, UniProt Q16790); assay: stopped-flow CO2 hydrase assay, hCA IX; assay type: biochemical; conditions: for Selectivity index (SI) (KI off-target CA/KI target CA) Towards hCA IX: ratio of KI for hCA I and II relative to hCA IX; for pKi: stopped-flow, incubation time of 6 h, mean of three assays, read-out: KI CA IX
T1 construct: made in house
Protocol: The newly synthesised MPCs (3 and 5a–o) were assessed for their CA inhibition activity employing the stopped-flow CO2 hydrase assay[29] for constitutional hCA (I/II) isoforms and cancer-linked hCA (IX/XII) isoforms.
The CA inhibition activity for the herein reported MPC derivatives was evaluated against the hCA isoforms I, II, IX, and XII using stopped-flow CO2 hydrase test[7]^,[33–36] (see the Supplementary Material).
Carbonic anhydrase inhibition assay
The carbonic anhydrase catalyzed CO2 hydration actions for all coumarin-based […]
Photophysics stopped-flow. The enzymes are recombinant proteins prepared in our lab. Phenol red (at a concentration of 0.2 mM) has been used as indicator, working at […]
mM Na2SO4 (for maintaining constant the ionic strength), following the initial rates of the CA-catalyzed CO2 hydration reaction for a period of 10-100 s. The CO2 concentrations ranged from 1.7 to 17 mM for the determination of the kinetic parameters and inhibition constants. For each inhibitor at least six traces of the initial 5-10% of the reaction have been used for determining the initial velocity. The uncatalyzed rates were determined in the same manner and subtracted from the total observed rates. Stock solutions of inhibitor (0.1 mM) were prepared in distilled-deionized water and dilutions up to 0.01 nM were done thereafter with the assay buffer. Inhibitor and enzyme solutions were preincubated together for 6 hrs. at room temperature prior to assay, in order to allow for the formation of the E-I complex. The inhibition constants were obtained by non-linear least-squares methods using PRISM 3 and the Cheng-Prusoff equation, and represent the mean from at least three different

MOLT-4 = assay: NCI single (10 µM) dose SRB screening, MOLT-4; assay type: cell-based, human; conditions: 10 µM single dose, MOLT-4, Leukaemia
Protocol: as §1, §2, §3

A549/ATCC = assay: NCI single (10 µM) dose SRB screening, A549/ATCC; assay type: cell-based, human; conditions: 10 µM single dose, NSC lung cancer
Protocol: as §1, §2, §3

SK-MEL-28 = assay: NCI single (10 µM) dose SRB screening, SK-MEL-28; assay type: cell-based, human; conditions: 10 µM single dose, SK-MEL-28, Melanoma
Protocol: as §1, §2, §3

MDA-MB-435 = assay: NCI single (10 µM) dose SRB screening, MDA-MB-435; assay type: cell-based, human; conditions: 10 µM single dose, MDA-MB-435, Melanoma
Protocol: as §1, §2, §3

MALME-3M = assay: NCI single (10 µM) dose SRB screening, MALME-3M; assay type: cell-based, human; conditions: 10 µM single dose, Melanoma
Protocol: as §1, §2, §3

SK-MEL-5 = assay: NCI single (10 µM) dose SRB screening, SK-MEL-5; assay type: cell-based, human; conditions: 10 µM single dose, SK-MEL-5, Melanoma
Protocol: as §1, §2, §3

| SMILES | GI % (HL-60(TB)) | GI % (HOP-62) | GI % (HOP-92) | GI % (MDA-MB-468) | GI % (NCI-H226) | GI % (ACHN) | GI % (HS 578 T) | GI % (IGROV1) | GI % (NCI-H460) | GI % (CAKI-1) | GI % (U251) | GI % (OVCAR-5) | GI % (SF-539) | GI % (HT29) | GI % (PC-3) | GI % (OVCAR-8) | GI % (CCRF-CEM) | GI % (HCT-116) | GI % (OVCAR-3) | GI % (K-562) | other results |
| --- | --- | --- | --- | --- | --- | --- | --- | --- | --- | --- | --- | --- | --- | --- | --- | --- | --- | --- | --- | --- | --- |
| Cc1nc(-c2cc3ccccc3oc2=O)ccc1C(=O)/C=C/c1ccc(N2CCOCC2)cc1 [Compound 5g, 3-(6-Methyl-5-[(2E)-3-[4-(morpholin-4-yl)phenyl]prop-2-enoyl]pyridin-2-yl)-2H-chromen-2-one] | 61% | – (Only GI % more than 20% are displayed.) | – (Only GI % more than 20% are displayed.) | 54% | – (Only GI % more than 20% are displayed.) | 29% | 40% | – (Only GI % more than 20% are displayed.) | – (Only GI % more than 20% are displayed.) | 34% | – (Only GI % more than 20% are displayed.) | – (Only GI % more than 20% are displayed.) | 54% | – (Only GI % more than 20% are displayed.) | – (Only GI % more than 20% are displayed.) | – (Only GI % more than 20% are displayed.) | 27% | – (Only GI % more than 20% are displayed.) | – (Only GI % more than 20% are displayed.) | 62% | GI % (RXF 393): – (Only GI % more than 20% are displayed.); Selectivity index (SI) (KI off-target CA/KI target CA) Towards hCA IX (hCA IX): >8.33; pKi (hCA IX): 4.92; GI % (MOLT-4): 33%; GI % (A549/ATCC): – (Only GI % more than 20% are displayed.); GI % (SK-MEL-28): 27%; GI % (MDA-MB-435): 121%; GI % (MALME-3M): 42%; GI % (SK-MEL-5): 28% |
| Cc1nc(-c2cc3ccccc3oc2=O)ccc1C(=O)/C=C/c1ccccn1 [Compound 5l, 3-(6-Methyl-5-[(2E)-3-(pyridin-2-yl)prop-2-enoyl]pyridin-2-yl)-2H-chromen-2-one] | 67% | – (Only GI % more than 20% are displayed.) | – (Only GI % more than 20% are displayed.) | 39% | – (Only GI % more than 20% are displayed.) | 41% | – (Only GI % more than 20% are displayed.) | 93% | 58% | 39% | 92% | 39% | 97% | 97% | 31% | 30% | 93% | 121% | 53% | 92% | GI % (RXF 393): 67%; Selectivity index (SI) (KI off-target CA/KI target CA) Towards hCA IX (hCA IX): >26.32; pKi (hCA IX): 5.42; GI % (MOLT-4): 72%; GI % (A549/ATCC): 33%; GI % (SK-MEL-28): – (Only GI % more than 20% are displayed.); GI % (MDA-MB-435): 29%; GI % (MALME-3M): – (Only GI % more than 20% are displayed.); GI % (SK-MEL-5): – (Only GI % more than 20% are displayed.) |
